Residue numbers refer to the chain shown, from its start. “And” between values parts separate entries of the source, which are not always exact repeats. Identical values can stand only once. Like-named read-outs stand apart in the source and are kept apart here.
How the values were obtained:
HMGB1 = molecular target: T1, HMGB1 (Homo sapiens, UniProt P09429); test: Cell migration assay with mouse embryonic fibroblasts, WT or Ptgs2-/-; format: cell-based; settings: dose-dependent, both WT and Ptgs2−/− MEFs
T1 construct: (i) full length: residues 2-215; 6x His (cleaved yes); made in house; host or cells: Escherichia coli BL21
T1 sequence (P09429 2-215): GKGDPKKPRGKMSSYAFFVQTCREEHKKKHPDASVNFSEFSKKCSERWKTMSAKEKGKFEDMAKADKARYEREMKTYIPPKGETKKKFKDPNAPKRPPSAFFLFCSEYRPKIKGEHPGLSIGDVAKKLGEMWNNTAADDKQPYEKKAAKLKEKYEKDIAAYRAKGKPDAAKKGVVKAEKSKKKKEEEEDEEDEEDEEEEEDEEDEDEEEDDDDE
Protocol: Human HeLa cells were grown in T75 flasks in DMEM medium supplemented with penicillin (10,000 IU/mL) streptomycin ([…]), and 10% fetal calf serum. Ptgs2−/− MEFs were derived from Ptgs2−/− E16 mouse embryos, obtained from the mating of Ptgs2+/− mice purchased from Taconic Biosciences. PBMCs were isolated from buffy coats of donor blood (Hospital of Magenta, Milan, Italy) by Ficoll gradient centrifugation (Lymphoprep; AXIS-SHIELD. CD14+ monocytes were isolated by positive immunoselection (CD14 Microbeads; Miltenyi Biotec) according to the manufacturer's instructions, and differentiated into macrophages using X-Vivo medium supplemented with 1% heat inactivated human serum, GM-CSF, and M-CSF.
Cell migration was assayed using Boyden chambers (Venereau et al., 2012). The downside of PVP-free polycarbonate filters (8 μm pores; Millipore) was coated with 50 μg/ml fibronectin (Sigma). Serum-free DMEM (negative control), DMEM containing 0.1 nM fMLP (positive control; Sigma), or DMEM containing 1 nM HMGB1^RE or HMGB1^SS were placed in the lower chamber, together with different concentrations of SA (Sigma). The mouse 3T3 fibroblast cells were cultured in DMEM media supplemented with 10% CS until 90% confluence, washed twice with PBS to eliminate any floating cells, and harvested with trypsin. […]

[1] = molecular target: T2, mutant (R24A/K28A) HMGB1^RE (Homo sapiens, UniProt P09429, K28A/R24A); test: Chemotaxis assay with mutant R24A/K28A HMGB1^RE; format: cell-based; settings: NIH/3T3 fibroblasts
T2 construct: (i) full length: residues 2-215; made in house
T2 sequence (P09429 2-215 R24A/K28A): T1 sequence (P09429 2-215) with R23A, K27A
Protocol: Cell migration was assayed using Boyden chambers (Venereau et al., 2012). The downside of PVP-free polycarbonate filters (8 μm pores; Millipore) was coated with 50 μg/ml fibronectin (Sigma). Serum-free DMEM (negative control), DMEM containing 0.1 nM fMLP (positive control; Sigma), or DMEM containing 1 nM HMGB1^RE or HMGB1^SS were placed in the lower chamber, together with different concentrations of SA (Sigma). The mouse 3T3 fibroblast cells were cultured in DMEM media supplemented with 10% CS until 90% confluence, washed twice with PBS to eliminate any floating cells, and harvested with trypsin. 50,000 cells in 200 μL were added to the upper chamber, and cells were left to migrate for 3 h at 37° C. Non-migrating cells were removed with a cotton swab, and migrated cells were fixed with ethanol and stained with Giemsa.
An alternative explanation is that SA, at low concentrations, affects another factor in vivo, which results indirectly in suppression of HMGB1^RE-induced chemotaxis. […] Therefore, these residues were mutated to Ala to form the double mutant Arg24Ala/Lys28Ala (R24A/K28A).

HMGB1 Box A domain = molecular target: T3, HMGB1 Box A domain (Homo sapiens, UniProt P09429); test: 15N-1H HSQC titration for Kd measurement; format: binding
T3 construct: (iii) Box A: residues 10-80; hexaHis (TEV-cleavable) (N, cleaved yes); made in house
T3 sequence (P09429 10-80): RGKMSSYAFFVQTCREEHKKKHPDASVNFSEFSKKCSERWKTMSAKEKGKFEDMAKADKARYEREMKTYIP
Protocol: […] Samples were analyzed with and without SA or other candidate inhibitors at 25° C. Chemical shift perturbation studies were carried out using either a Bruker Avance 800 MHz Avance NMR system with 4-mm NMR tubes, or using a Bruker Avance 600 MHz NMR spectrometer equipped with a 1.7 mm micro cryoprobe. 1024 or 2048 complex points were acquired for each of 80 to 200 increments in the ^15N dimension with a recycle delay of 1 s. Each spectrum was typically acquired for 2-8 hrs. Chemical shift assignments were determined using a uniformly ^13C,^15N-enriched HMGB1-ΔC construct at 25° C. via traditional triple-resonance NMR experiments (Biamonti et al., 1994; Moseley et al., 2001) recorded on a Bruker 800 MHz NMR spectrometer equipped with a 5 mm cryoprobe. Disulfide oxidation studies were carried out using the ^15N-^1H SOFAST-HMQC NMR experiment (Schanda & Brutscher, 2005; Schanda et al., 2005; Zandarashvili et al., 2013).
NMR experiments were used to discover that ac3AESA binds to HMGB1 Box A domain of HMGB1 more tightly than SA itself. […] Chemical shift perturbations (CSPs) are defined as Δδppm=[(δHN*6.5)^2+δN^2]^1/2.

Which “inhibition of fibroblast migration in WT and Ptgs2-/- MEFs” value (HMGB1) does the source give for `O=C(O)c1ccccc1O` [SA, salicylic acid] here?
Its value is “effectively inhibited”.

What about the “inhibition of R24A/K28A HMGB1^RE's chemo-attractant activity” value [1] of the same compound?
Its value is “not inhibited”.

What about the Kd (HMGB1 Box A domain; 0.2 mM Box A, pH 7.5, read-out: Kd of binding to HMGB1 Box A (HSQC titration, 1:1 fit)) of the same compound?
The Kd was ~90 mM and 90 mM.

And the Kd (HMGB1 Box A domain; Box A or full-length HMGB1, read-out: Kd from titrating SA with either Box A or full-length HMGB1)?
Its Kd is roughly 10 mM.

And the Kd (HMGB1 Box A domain; read-out: affinity (Kd) for Box A of HMGB1 as stated in definitions)?
Its Kd is roughly 10 mM.
